These are literature values, as cited in patent US20040142847A1, “Detergent tablets with polyurethane coating” (priority 2002, published 2004).

Converted amounts (≈) assume the structure as drawn. Like-named read-outs stand apart in the source and are kept apart here.

The conditions of series [1]: for amount of the anhydrous salt that dissolves in 100 g of water: per 100 g of water.
The conditions of series [2]: 1% strength solution at 25°.
For series [3] the following is noted: after heating the solution at 100° C. for two hours.
Where [4] appears, read: 20° C., listing of preferred solubilizers.
The mark [5] stands for this setting: 20° C., listing of suitable solubilizers.
[6] abbreviates: 25° C., listing of preferred solubilizers.

As to `[Cl-].[K+]` [Potassium chloride], the solubility in water in series [1] (setting [4]) and in series [1] (setting [5]) was 340 mg/mL each time. For `NC(N)=O` [Urea], the solubility in water in series [1] (setting [4]) and in series [1] (setting [5]) was 1080 mg/mL (≈ 18000 mM) throughout. On to `O=C(CO)[C@@H](O)[C@H](O)[C@@H](O)CO` [L(−)-sorbose], for which the solubility in water in series [1] (17° C., listing of preferred solubilizers) was 550 mg/mL (≈ 3050 mM).

`[Cl-].[Cs+]` [Cesium chloride]: the solubility in water in series [1] (setting [4]) and in series [1] (setting [5]) was 1800 mg/mL throughout.

Turning to `O=C(O)/C=C\C(=O)O` [Maleic acid], the solubility in water in series [1] (setting [6]) is 788 mg/mL (≈ 6790 mM). With `O=C[C@H](O)[C@@H](O)[C@@H](O)[C@H](O)CO` [D(+)-Galactose], the solubility in water in series [1] (setting [6]) was 680 mg/mL (≈ 3770 mM). In the case of `O=P([O-])([O-])OP(=O)([O-])[O-].[K+].[K+].[K+].[K+]` [Potassium diphosphate], the “pH of the 1% strength solution” value in series [2] was 10.4. On to Sodium polyphosphate, for which the solubility in water in series [1] (setting [5]) was 1000 mg/mL. Turning to `O=P([O-])([O-])OP(=O)([O-])OP(=O)([O-])[O-].[Na+].[Na+].[Na+].[Na+].[Na+]` [pentasodium triphosphate], the results for the “amount of the anhydrous salt that dissolves in 100 g of water” value in series [1] (60°), in series [1] (100°) and in series [1] (room temperature) were “about 20 g”, “around 32 g” and “About 17 g”, respectively. Further, in series [3], the “diphosphate produced by hydrolysis” value is recorded as ~15%. In addition, the “orthophosphate produced by hydrolysis” value in series [3] was “about 8%”.

As to `O=C(O)CC(O)C(=O)O` (racemic) [DL-Malic acid], the solubility in water in series [1] (26° C., listing of preferred solubilizers) is 1440 mg/mL (≈ 10700 mM); in series [1] (26° C., listing of suitable solubilizers), 1440 mg/mL (≈ 10700 mM). For `[Cl-].[Cl-].[Zn+2]` [Zinc chloride], the solubility in water in series [1] (setting [4]) and in series [1] (setting [5]) was 3680 mg/mL throughout.
